Legend:
[1] = Toxicity Index (TI) computed from graded treatment-attributable adverse events (NCI CTC) of recipient subjects, per treatment cycle; type: in vivo, human; parameters: key to Toxicity Index TI9 Mean / Toxicity Index TI12 Mean / Toxicity Index TI13 Mean / Toxicity Index TI16 Mean / Toxicity Index TI17 Mean / Toxicity Index TI19 Mean / Toxicity Index TI1 Mean / Toxicity Index TI2 Mean / Toxicity Index TI4 Mean: weighted sum of ordered recoded CTC grades; ≥3 = DLT; conditions: mean over recipient subjects; for Toxicity Index TI1 Mean: cycle 1, score between 0 and 5; for Toxicity Index TI2 Mean: cycle 2; for Toxicity Index TI3 Mean: cycle 3; for Toxicity Index TI4 Mean: cycle 4; for Toxicity Index TI5 Mean: cycle 5; for Toxicity Index TI6 Mean: cycle 6; for Toxicity Index TI7 Mean: cycle 7; for Toxicity Index TI8 Mean: cycle 8; for Toxicity Index TI9 Mean: cycle 9; for Toxicity Index TI10 Mean: cycle 10; for Toxicity Index TI11 Mean: cycle 11; for Toxicity Index TI12 Mean: cycle 12; for Toxicity Index TI13 Mean: cycle 13; for Toxicity Index TI14 Mean: cycle 14; for Toxicity Index TI15 Mean: cycle 15; for Toxicity Index TI16 Mean: cycle 16; for Toxicity Index TI17 Mean: cycle 17; for Toxicity Index TI18 Mean: cycle 18; for Toxicity Index TI19 Mean: cycle 19; for Toxicity Index TI20 Mean: cycle 20; for Toxicity Index TI21 Mean: cycle 21
From the text: Recipient subject-specific characteristics, medical and treatment histories, doses of experimental agents, and graded toxicities were extracted from case report forms. Toxicity data were represented for each subject as a set of treatment-attributable adverse events, each graded (0, 1, 2, 3, or 4) according to NCI Common Toxicity Criteria (CTC). The term “toxicity profile” as used herein refers to the collection of graded toxicities observed for an individual recipient subject.
To include all trials in the same analysis, a common definition of dose limiting toxicity (DLT) was adopted. Specifically, DLT was defined as occurring whenever any one of the following was observed: grade 4 hematological toxicity (grade 4 neutropenia or thrombocytopenia of any duration); a grade 3 or 4 non-hematological toxicity (excluding nausea, vomiting, and alopecia); febrile neutropenia of any grade.
To identify risk factors and other pre-trial characteristics of interest, several ways of summarizing the toxicity profile of a given recipient subject into a single measure of overall severity were examined as described, for example in Rogatko et al., (2004) Clin. Cancer Res. 10:4645-4651, incorporated herein by reference in its entirety. A summary measure that takes into account all observed toxicity grades rather than just the most severe one was used. The summary measure, the Toxicity Index (TI), is computed according to the following algorithm: • (a) recode each hematologic toxicity as the maximum of 0 and the observed grade minus one (so that a grade 3 toxicity is dose limiting irrespective of whether or not it is hematologic). • (b) Let the toxicity grades in a subject's recoded toxicity profile be represented in descending order by the sequence X1≧X2≧ . . . ≧Xn • (c) Calculate the subject's TI score as the weighted sum of the ordered toxicity grades:
Any score greater than or equal to 3 corresponds to a DLT according to the definition given above, and the maximum toxicity grade is the integer part of the final score. […] All toxicity grades are taken into account, though lower grades will contribute less to the final score.
The score is a number between 0 and 5.
Thirty (30) recipient subjects already receiving treatment with paclitaxel were screened for the presence of SNPs in the CYP2C8 and TUBB loci. Clinical data from each of the recipient subjects was used to first calculate a Toxicity Index (TI) value for each individual according to the method presented in Example 1, above. The genotype for each recipient subject with regard to the SNPs of CYP2C8 and TUBB was determined using SNPWARE™ and single base extension according to the methods of Example 4, above.
(§1) A preliminary data analysis focused on the relationship between the Toxicity Index and the recipient subjects' demographic/genetic information. […] Univariate linear regression analysis was conducted first to find significant covariates in predicting the Toxicity Index in one of five cycles, then multivariable analysis was used to determine the best model in fitting the data. A mixed model for repeated measurement was implemented in modeling Toxicity Index in the first five cycles, and also in all cycles. Autoregressive covariance structure was used in the mixed model. SAS and Minitab were used in the analysis.

[2] = system: CYP3A5; assay: Regression of Toxicity Index on CYP3A5 SNP genotype of recipient subjects; type: in vivo, human; conditions: for Para. Est., TI5 vs CYP3A5_3A (multivariable): multivariable analysis best model; for Para. Est., TI5 vs CYP3A5_3A (multivariable) / Para. Est., TI5 vs CYP3A5_3A1 / Para. Est., TI5 vs CYP3A5_3A: cycle 5
From the text: The GENOMELAB SNPSTREAM™ (Beckman) was utilized to accommodate up to 92,000 genotypes per day. This automated, multiplexed system can process up to 48 SNPs in each well of an arrayed 384-well plate. The SNPSTREAM™ operates at a consistent cost per genotype or per sample, regardless of run throughput, allowing users to cost-effectively zero in on targets with low-throughput studies as well as conduct high-throughput analyses.
The SNPSTREAM™ Genotyping System features a protocol with three steps. The technology is based on single-based primer extension technology. The system's high sensitivity delivers results using as little as 2 ng of genomic DNA. SNPWARE™ reagent kits were used. The kits included ready-to-use reagents, all performed in the original PCR plate according to the manufacturer's instructions, and incorporated herein by reference in its entirety.
Multiplexed reactions were spatially resolved on a SNPWARE™ Tag Array plate. Each of the 384 wells in a plate contained 16 or 52 unique oligonucleotides of a known sequence, or tag. Each tag on the plate was complementary to one of the tags of the 12 or 48 extension primers, plus four controls to ensure accuracy. After transfer to the Tag Array plate, each SNP was hybridized to its complementary tag. SNPs were then identified by their position in the well.
The process involved a multiplex PCR followed by an annealing reaction of the oligonucleotide to the specific PCR product. Next the oligonucleotide was extended by a single base which was fluorescently labeled with a terminating NTP and finally detected by two-colored fluorescence specific for the allele.
For each SNP, the -PCRU and -PCRL primers were first used to amplify a relevant DNA fragment surrounding the target SNP site. The components per reaction were: H2O, 3.0 μl; 10× PCR Buffer II, 0.5 μl; MgCl2 (25 mM), 1.0 μl; dNTPs (2.5 mM each), 0.18 μl; PCR Primer Pool (2.5 μM each), 0.1 μl; AMPLITAQ GOLD™ (5 U/μl), 0.125 μl for a total volume of 5.0 μl per reaction.
Primer -SNPU or SNPL was then used for single-base extension reaction. The thermocycler program was as follows: Step 1: 96° C. for 3 min; Step 2: 94° C. for 20 sec; Step 3: 40° C. for 11 sec; and Step 5: return to step 2 59 times, and finally to hold at 4° C.
as §1
Covariates in the analysis included recoded binary demographic variables (sex, race, site, grade, stage) and recoded binary genetic variables.
Multivariable regression analysis was used to find the best model in predicting the Toxicity Index in each of the first five cycles.

SMILES	Toxicity Index TI1 Mean [1]	Toxicity Index TI2 Mean [1]	Toxicity Index TI3 Mean [1]	Toxicity Index TI4 Mean [1]	Toxicity Index TI5 Mean [1]	Toxicity Index TI6 Mean [1]	Toxicity Index TI7 Mean [1]	Toxicity Index TI8 Mean [1]	Toxicity Index TI9 Mean [1]	Toxicity Index TI10 Mean [1]	Toxicity Index TI11 Mean [1]	Toxicity Index TI12 Mean [1]	Toxicity Index TI13 Mean [1]	Toxicity Index TI14 Mean [1]	Toxicity Index TI15 Mean [1]	Toxicity Index TI16 Mean [1]	Toxicity Index TI17 Mean [1]	Toxicity Index TI18 Mean [1]	Toxicity Index TI19 Mean [1]	Toxicity Index TI20 Mean [1]	further results
CC(=O)O[C@@]12CO[C@@H]1C[C@H](O)[C@@]1(C)C(=O)[C@H](O)C3=C(C)[C@@H](OC(=O)[C@H](O)[C@@H](NC(=O)OC(C)(C)C)c4ccccc4)C[C@@](O)([C@@H](OC(=O)c4ccccc4)[C@H]21)C3(C)C (relative stereo) [Docetaxel, Benzenepropanoic acid, β-(((1,1-dimethylethoxy)carbonyl)amino)-α-hydroxy-, 12b-(acetyloxy)-12-(benzoyloxy)-2a,3,4,4a,5,6,9,10,11,12,12a,12b-dodecahydro-4,6,11-trihydroxy-4a,8,13,13-tetramethyl-5-oxo-7,11-methano-1H-cyclodeca(3,4)benz(1,2-b)oxet-9-yl ester trihydrate, (2aR-(2aα,4β,4aβ,6β,9(αR*,βS),11α,12α,12aα,12bα))-]	2.727	2.840	2.737	3.058	2.669	2.875	2.646	2.804	2.438	2.623	2.297	2.090	2.404	2.171	2.083	1.875	1.875	1.875	2.625	1.875	Toxicity Index TI21 Mean [1]: 1.875; Para. Est., TI5 vs CYP3A5_3A (multivariable) ([2]; rs776746, AG = 1, GG/AA = 0, P-value 0.024): −1.739; Para. Est., TI4 vs CYP3A5_3A1 ([2]; univariate linear regression, cycle 4, rs15524, TC = 1, CC/TT = 0, P-value 0.045): −1.079; Para. Est., TI4 vs CYP3A5_3A ([2]; univariate linear regression, cycle 4, rs776746, AG = 1, GG/AA = 0, P-value 0.045): −1.079; Para. Est., TI5 vs CYP3A5_3A1 ([2]; univariate linear regression, rs15524, TC = 1, CC/TT = 0, P-value 0.024): −1.739; Para. Est., TI5 vs CYP3A5_3A ([2]; univariate linear regression, rs776746, AG = 1, GG/AA = 0, P-value 0.024): −1.739
CC(=O)O[C@H]1C(=O)[C@@]2(C)[C@H]([C@H](OC(=O)c3ccccc3)[C@]3(O)C[C@H](OC(=O)[C@H](O)[C@@H](NC(=O)c4ccccc4)c4ccccc4)C(C)=C1C3(C)C)[C@]1(OC(C)=O)CO[C@@H]1C[C@@H]2O [Paclitaxel, (2aR,4S,4aS,6R,9S,11S,12S,12aR,12bS)-1,2a,3,4,4a,6,9,10,11,12,12a,12b-Dodecahydro-4,6,9,11,12,12b-hexahydroxy-4a,8,13,13-tetramethyl-7,11-methano-5H-cyclodeca(3,4)benz(1,2-b)oxet-5-one 6,12b-diacetate, 12-benzoate, 9-ester with (2R,3S)-N-benzoyl-3-phenylisoserine]	2.175	2.399	2.491	2.787	2.696	2.580	2.529	2.206	2.292	1.875	2.583	1.750	1.875	1.875	1.875	2.583	2.583	2.583	2.583	2.944	Toxicity Index TI21 Mean [1]: 3.469; Para. Est., TI5 vs CYP3A5_3A (multivariable) ([2]; rs776746, GG = 1, AG = 0, P-value 0.022): 1.477; Para. Est., TI5 vs CYP3A5_3A1 ([2]; univariate linear regression, rs15524, TT = 1, TC = 0, P-value 0.022): 1.477; Para. Est., TI5 vs CYP3A5_3A ([2]; univariate linear regression, rs776746, GG = 1, AG = 0, P-value 0.022): 1.477
